From patent publication US20250002475A1 (EPICS THERAPEUTICS, priority 2023, published 2025) come the findings set out here.

In the test the target is T1, recombinant METTL3/METTL14 complex (Homo sapiens, UniProt Q86U44).
T1 construct: purchased Active Motif 311970; host or cells: Sf9 cells
T1 sequence (Q86U44 whole entry): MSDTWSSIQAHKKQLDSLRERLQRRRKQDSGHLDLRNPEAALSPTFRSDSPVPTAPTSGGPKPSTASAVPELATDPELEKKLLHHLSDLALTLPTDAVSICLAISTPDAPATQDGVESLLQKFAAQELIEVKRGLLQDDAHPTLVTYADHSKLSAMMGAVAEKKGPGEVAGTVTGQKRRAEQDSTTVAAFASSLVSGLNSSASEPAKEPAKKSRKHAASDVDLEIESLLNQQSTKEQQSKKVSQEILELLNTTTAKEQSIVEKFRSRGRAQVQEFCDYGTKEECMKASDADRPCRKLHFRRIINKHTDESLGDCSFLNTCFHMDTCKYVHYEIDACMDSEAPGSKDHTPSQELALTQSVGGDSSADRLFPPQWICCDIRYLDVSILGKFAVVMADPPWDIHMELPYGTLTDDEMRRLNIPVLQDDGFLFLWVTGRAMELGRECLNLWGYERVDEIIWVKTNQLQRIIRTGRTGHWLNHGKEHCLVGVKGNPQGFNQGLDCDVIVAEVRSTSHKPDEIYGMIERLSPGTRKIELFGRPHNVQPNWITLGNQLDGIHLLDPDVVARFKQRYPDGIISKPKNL
T1 sequence (Q9HCE5 whole entry partner): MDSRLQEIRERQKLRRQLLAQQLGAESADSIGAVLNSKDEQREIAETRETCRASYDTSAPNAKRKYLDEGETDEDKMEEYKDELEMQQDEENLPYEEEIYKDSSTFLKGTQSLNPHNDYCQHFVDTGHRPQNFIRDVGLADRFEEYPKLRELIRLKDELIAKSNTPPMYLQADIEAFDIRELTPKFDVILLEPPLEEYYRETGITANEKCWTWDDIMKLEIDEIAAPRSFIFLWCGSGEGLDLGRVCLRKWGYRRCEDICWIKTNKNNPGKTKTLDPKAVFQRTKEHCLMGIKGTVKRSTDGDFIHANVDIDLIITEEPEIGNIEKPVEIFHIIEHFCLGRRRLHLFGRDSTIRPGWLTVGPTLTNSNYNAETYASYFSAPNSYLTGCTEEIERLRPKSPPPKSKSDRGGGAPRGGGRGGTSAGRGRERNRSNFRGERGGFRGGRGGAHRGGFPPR
Description: METTL3/14 Scintillation Proximity Assay (SPA), RNA methyltransferase activity. It is filed as biochemical. The following applies: 5.31 nM METTL3/14 complex, 250 nM RNA substrate, 1 μM 3H-SAM, 90 min; for compounds marked * best of the two separated forms. On the technique in general: Scintillation proximity formats need no separation of bound from free tracer.
In the case of `CC(C(=O)Nc1cncc(N(C)C)c1)n1ccc(N2CCC[C@@H](NCC3CCC3)C2)cc1=O` (mixture of isomers) [Compound 162, 2-(4-((R)-3-((cyclobutylmethyl)amino)piperidin-1-yl)-2-oxopyridin-1(2H)-yl)-N-(5-(dimethylamino)pyridin-3-yl)propanamide], the IC50 – broadly, the concentration needed to halve the response being measured – is 50 to 500 nM.
As for `COc1cncc(-n2cc(C(C)n3ccc(N4CCC[C@@H](NCC5CCC5)C4)cc3=O)cn2)c1` (mixture of isomers) [Compound 120, 4-((R)-3-((cyclobutylmethyl)amino)piperidin-1-yl)-1-(1-(1-(5-methoxypyridin-3-yl)-1H-pyrazol-4-yl)ethyl)pyridin-2(1H)-one], the IC50 is at most 50 nM.
The value for `O=c1cc(-c2cn(Cc3ccc(N4CCC[C@@H](NCC5CCC5)C4)cc3)nn2)nc2ccccn12` [Compound 128, (R)-2-(1-(4-(3-((cyclobutylmethyl)amino)piperidin-1-yl)benzyl)-1H-1,2,3-triazol-4-yl)-4H-pyrido[1,2-a]pyrimidin-4-one] was at most 50 nM; that for `COc1cncc(NC(=O)C(C)c2ccc(N3CCC[C@@H](NCC4CCC4)C3)nn2)c1` (stereo partly drawn) [Compound 141, 2-(6-((R)-3-((cyclobutylmethyl)amino)piperidin-1-yl)pyridazin-3-yl)-N-(5-methoxypyridin-3-yl)propanamide] was 50 to 500 nM; that for `COc1cncc(-c2cn(Cc3ccc(N4CCCCC(NCC5CCC5)C4)nn3)nn2)c1` (stereo not shown) [Compound 101, N-(cyclobutylmethyl)-1-(6-((4-(5-methoxypyridin-3-yl)-1H-1,2,3-triazol-1-yl)methyl)pyridazin-3-yl)azepan-3-amine] was 50 to 500 nM.
For `COc1cnnc(-c2cn(C(C)c3ccc(N4CCC[C@@H](NCC5CCC5)C4)nn3)nn2)c1` (single isomer, unassigned) [Compound 137], the IC50 was in the range of 50 to 500 nM.
Under `CC(NC(=O)c1cc(=O)n2ccccc2n1)c1ccc(N2CCC[C@@H](NC3CCCC3)C2)cn1` (single isomer, unassigned) [Compound 117] stands 50 to 500 nM.
Regarding `COc1cc(C(=O)NCc2ccc(N3CCC[C@@H](NCC4CCC4)C3)nn2)c2cn[nH]c2c1` [Compound 005, (R)-N-((6-(3-((cyclobutylmethyl)amino)piperidin-1-yl)pyridazin-3-yl)methyl)-6-methoxy-1H-indazole-4-carboxamide], the IC50 was 50 to 500 nM.
The value for `COc1ccc(C(=O)NC(C)c2ccc(N3CCC[C@@H](NCC4CCC4)C3)nn2)c2cn[nH]c12` (mixture of isomers) [Compound 092, N-(1-(6-((R)-3-((cyclobutylmethyl)amino)piperidin-1-yl)pyridazin-3-yl)ethyl)-7-methoxy-1H-indazole-4-carboxamide] was at most 50 nM; that for `CC(n1cc(-c2cncc(-n3cccn3)c2)nn1)n1ccc(N2CCC[C@@H](NCC3CCC3)C2)cc1=O` (mixture of isomers) [Compound 146, 1-(1-(4-(5-(1H-pyrazol-1-yl)pyridin-3-yl)-1H-1,2,3-triazol-1-yl)ethyl)-4-((R)-3-((cyclobutylmethyl)amino)piperidin-1-yl)pyridin-2(1H)-one] was at most 50 nM.
The value for `CC(n1cc(-c2cccnc2)nn1)n1ccc(N2CCC[C@@H](NCC3CCC3)C2)cc1=O` (stereo partly drawn) [Compound 079, 4-((R)-3-((cyclobutylmethyl)amino)piperidin-1-yl)-1-(1-(4-(pyridin-3-yl)-1H-1,2,3-triazol-1-yl)ethyl)pyridin-2(1H)-one] was at most 50 nM.
Under `CC(n1cc(-c2cncc3[nH]ncc23)nn1)n1ccc(N2CCC[C@@H](NCC3CCC3)C2)cc1=O` (stereo partly shown) [Compound 147] stands at most 50 nM; under `CC(NC(=O)c1cc(=S)n2ccccc2n1)c1ccc(N2CCC[C@@H](NCC3CCC3)C2)nn1` (single isomer, unassigned) [Compound 110], at most 50 nM.
As to `O=C(NCc1ccc(N2CCC[C@@H](NCC3CCC3)C2)cc1)c1cc(=O)n2ccccc2n1` [Compound 070, (R)-N-(4-(3-((cyclobutylmethyl)amino)piperidin-1-yl)benzyl)-4-oxo-4H-pyrido[1,2-a]pyrimidine-2-carboxamide], the IC50 was at most 50 nM.
Take `Cc1cc(N2CCC[C@@H](NCC3CC3)C2)cnc1C(C)n1cc(-c2cncc(C3CC3)c2)nn1` (single isomer, unassigned) [Compound 318]: the IC50 was at most 50 nM.
Under `CC(C(=O)Nc1cncc(N2CCCC2)c1)c1ccc(N2CCC[C@@H](NCC3CCC3)C2)cn1` (single isomer, unassigned) [Compound 264] stands at most 50 nM; under `COc1cncc(-c2nnc(Cc3ccc(N4CCC[C@@H](NCC5CCC5)C4)nn3)[nH]2)c1` [Compound 069, (R)-N-(cyclobutylmethyl)-1-(6-((5-(5-methoxypyridin-3-yl)-4H-1,2,4-triazol-3-yl)methyl)pyridazin-3-yl)piperidin-3-amine], at most 50 nM; under `CC(n1cc(-c2cncc(N3CCOCC3)c2)nn1)n1ccc(N2CCC[C@@H](NCC3CCC3)C2)cc1=O` (mixture of isomers) [Compound 129, 4-((R)-3-((cyclobutylmethyl)amino)piperidin-1-yl)-1-(1-(4-(5-morpholinopyridin-3-yl)-1H-1,2,3-triazol-1-yl)ethyl)pyridin-2(1H)-one], at most 50 nM.
The value for `O=C(Cc1ccc(N2CCC[C@@H](NCC3CCC3)C2)cn1)Nc1cncc(N2CCCC2)n1` [Compound 277, (R)-2-(5-(3-((cyclobutylmethyl)amino)piperidin-1-yl)pyridin-2-yl)-N-(6-(pyrrolidin-1-yl)pyrazin-2-yl)acetamide] was at most 50 nM; that for `COc1cncc(-c2cc(C(C)n3ccc(N4CCC[C@@H](NCC5CCC5)C4)cc3=O)sn2)c1` (mixture of isomers) [Compound 204, 4-((R)-3-((cyclobutylmethyl)amino)piperidin-1-yl)-1-(1-(3-(5-methoxypyridin-3-yl)isothiazol-5-yl)ethyl)pyridin-2(1H)-one] was at most 50 nM.
On to `CC(NC(=S)c1cc(=O)n2ccccc2n1)c1ccc(N2CCC[C@@H](NCC3CCC3)C2)nn1` (mixture of isomers) [Compound 111, N-(1-(6-((R)-3-((cyclobutylmethyl)amino)piperidin-1-yl)pyridazin-3-yl)ethyl)-4-oxo-4H-pyrido[1,2-a]pyrimidine-2-carbothioamide], for which the IC50 was 50 to 500 nM.
The value for `COc1cncc(-c2ncc(C(C)(O)c3ccc(N4CCC[C@@H](NCC5CCC5)C4)cn3)s2)c1` (single isomer, unassigned) [Compound 165] was at most 50 nM; that for `CC(C(=O)Nc1cncc(N2CCCC2)n1)c1ccc(N2CCC[C@@H](NCC3CCC3)C2)cn1` (stereo partly drawn) [Compound 274, 2-(5-((R)-3-((cyclobutylmethyl)amino)piperidin-1-yl)pyridin-2-yl)-N-(6-(pyrrolidin-1-yl)pyrazin-2-yl)propanamide] was at most 50 nM.
`CC(NC(=O)c1cc(=O)n2ccccc2n1)c1ccc(N2CCC[C@@H](NCC3CC3)C2)cn1` (mixture of isomers) [Compound 112, N-(1-(5-((R)-3-((cyclopropylmethyl)amino)piperidin-1-Yl)pyridin-2-yl)ethyl) -4-oxo-4H-pyrido[1,2-a]pyrimidine-2-carboxamide]: the IC50 was at most 50 nM.
Under `COc1cncc(-c2cn(C(c3ccc(N4CCC[C@@H](NCC5CCC5)C4)nn3)C3CC3)nn2)c1` (single isomer, unassigned) [Compound 084] stands at most 50 nM.
Under `COc1cncc(-c2nnn(C(C)c3ccc(N4CCC[C@@H](NCC5CCC5)C4)nn3)n2)c1` (single isomer, unassigned) [Compound 190] stands at most 50 nM; under `COc1cc(NC(=O)C2(c3ccc(N4CCC[C@@H](NCC5CCC5)C4)cn3)COC2)c2cn[nH]c2c1` [Compound 273, (R)-3-(5-(3-((cyclobutylmethyl)amino)piperidin-1-yl)pyridin-2-yl)-N-(6-methoxy-1H-indazol-4-yl)oxetane-3-carboxamide], at most 50 nM.
The value for `COc1cnc(C)c(-c2cn(C(C)n3ccc(N4CCC[C@@H](NCC5CCC5)C4)cc3=O)nn2)c1` (stereo partly drawn) [Compound 114, 4-((R)-3-((cyclobutylmethyl)amino)piperidin-1-yl)-1-(1-(4-(5-methoxy-2-methylpyridin-3-yl)-1H-1,2,3-triazol-1-yl)ethyl)pyridin-2(1H)-one] was at most 50 nM; that for `COc1cc(-c2cn(Cc3ccc(N4CCC[C@@H](NC(C)C5CC5)C4)nn3)nn2)c2cn[nH]c2c1` (single isomer, unassigned) [Compound 045] was at most 50 nM.
With `CC(n1cc(-c2cncc(F)c2)nn1)n1ccc(N2CCC[C@@H](NCC3CCC3)C2)cc1=O` (stereo partly drawn) [Compound 094, 4-((R)-3-((cyclobutylmethyl)amino)piperidin-1-yl)-1-(1-(4-(5-fluoropyridin-3-yl)-1H-1,2,3-triazol-1-yl)ethyl)pyridin-2(1H)-one], the IC50 is at most 50 nM.
The value for `COc1cncc(-c2cc(C(C)n3ccc(N4CCC[C@@H](NCC5CCC5)C4)cc3=O)on2)c1` (mixture of isomers) [Compound 130, 4-((R)-3-((cyclobutylmethyl)amino)piperidin-1-yl)-1-(1-(3-(5-methoxypyridin-3-yl)isoxazol-5-yl)ethyl)pyridin-2(1H)-one] was at most 50 nM; that for `CC1CCCN1c1cncc(-c2cn(C(C)n3ccc(N4CCC[C@@H](NCC5CCC5)C4)cc3=O)nn2)c1` (mixture of isomers) [Compound 172] was 50 to 500 nM.
Under `O=C(NCc1ccc(N2CCC[C@@H](NCC3CC3)C2)nn1)c1cc(=O)n2ccccc2n1` [Compound 016, (R)-N-((6-(3-((cyclopropylmethyl)amino)piperidin-1-yl)pyridazin-3-yl)methyl)-4-oxo-4H-pyrido[1,2-a]pyrimidine-2-carboxamide] stands 50 to 500 nM; under `CC(c1ccc(N2CCC[C@@H](NCC3CCC3)C2)nn1)n1cc(-c2cc(=O)n3cc(Cl)ccc3n2)nn1` (stereo partly drawn) [Compound 090, 7-chloro-2-(1-(1-(6-((R)-3-((cyclobutylmethyl)amino)piperidin-1-yl)pyridazin-3-yl)ethyl)-1H-1,2,3-triazol-4-yl)-4H-pyrido[1,2-a]pyrimidin-4-one], at most 50 nM.
